Calls of active or inactive are those of the source. The rule behind the calls is not given here.
What was measured:
A549 = assay: Cytotoxicity against human A549 cells after 48 hrs by MTT assay; assay type: functional, cell-based; details: A549, 48 h
NIH3T3 = assay: Cytotoxicity against mouse NIH/3T3 cells after 48 hrs by MTT assay; assay type: cell-based; details: NIH3T3, 48 h
MCF7 = assay: Cytotoxicity against human MCF7 cells after 48 hrs by MTT assay; assay type: functional, cell-based; details: MCF7, 48 h
B16 = assay: Cytotoxicity against mouse B16 cells after 48 hrs by MTT assay; assay type: functional, cell-based; details: B16, 48 h
HeLa = assay: Cytotoxicity against human HeLa cells after 48 hrs by MTT assay; assay type: functional, cell-based
Calf thymus DNA = assay: Binding affinity to calf thymus DNA assessed as increase in viscosity at 15 uM by viscometric method; assay type: nucleic-acid assay; details: Bos taurus

SMILES	IC50 (A549) [nM]	IC50 (NIH3T3) [nM]	IC50 (MCF7) [nM]	IC50 (B16) [nM]	IC50 (HeLa) [nM]	Activity (Calf thymus DNA)
COc1ccc(-c2nc(CNC(=O)/C=C/c3cc(OC)c(OC)c(OC)c3)cc3c2[nH]c2ccccc23)cc1	19.7	39.3	13.9	17.4	22.9	
COc1cc(-c2nc(CNC(=O)/C=C/c3cc(F)cc(F)c3)cc3c2[nH]c2ccccc23)cc(OC)c1OC	21.6	36.3	19.6	24.1	23.8	
COc1cc(/C=C/C(=O)NCc2cc3c([nH]c4ccccc43)c(-c3cc(OC)c(OC)c(OC)c3)n2)cc(OC)c1OC	21.3	38.9	16.5	17.2	23.5	
COc1cccc2c1C(=O)c1c(O)c3c(c(O)c1C2=O)C[C@@](O)(C(=O)CO)C[C@@H]3O[C@H]1C[C@H](N)[C@H](O)[C@H](C)O1 [DOXORUBICIN]		1720	580	670	780	
COc1cc(-c2nc(CNC(=O)/C=C/c3ccc(Cl)cc3)cc3c2[nH]c2ccccc23)cc(OC)c1OC	18.9	35.6	17.5	18.7	26.8	
COc1ccc(-c2nc(CNC(=O)/C=C/c3ccc(Cl)c(Cl)c3)cc3c2[nH]c2ccccc23)cc1	18.4	37.5	16.4	23	21.6	
O=C(/C=C/c1cccc(O)c1)NCc1cc2c([nH]c3ccccc32)c(-c2cccc(F)c2)n1	23.4	35.7	19.2	24.9	27	
O=C(/C=C/c1ccc(Cl)c(Cl)c1)NCc1cc2c([nH]c3ccccc32)c(-c2cccc(F)c2)n1	18	39	17	18.9	24.9	
COc1cc(/C=C/C(=O)NCc2cc3c([nH]c4ccccc43)c(-c3cccc(F)c3)n2)ccc1O	22.4	36.9	17.9	19.4	23.9	
CC[n+]1c(-c2ccccc2)c2cc(N)ccc2c2ccc(N)cc21						Active
O=C(/C=C/c1cc(F)cc(F)c1)NCc1cc2c([nH]c3ccccc32)c(-c2cccc(F)c2)n1	21	36	16.5	18.2	23.6	
O=C(/C=C/c1ccc(F)cc1)NCc1cc2c([nH]c3ccccc32)c(-c2cccc(F)c2)n1	16.3	30.8	16.5	16.8	24.3	
COc1ccc(OC)c(/C=C/C(=O)NCc2cc3c([nH]c4ccccc43)c(-c3cccc(F)c3)n2)c1	22.2	39.6	17.5	19.9	21.9	
COc1cc(-c2nc(CNC(=O)/C=C/c3ccc(Cl)c(Cl)c3)cc3c2[nH]c2ccccc23)cc(OC)c1OC	20.4	39.2	17.5	16.9	25.9	

— ChEMBL document CHEMBL4152353, “Synthesis of DNA interactive C3-trans-cinnamide linked β-carboline conjugates as potential cytotoxic and DNA topoisomerase I inhibitors” (Bioorg Med Chem, 2018)
